{"source": "patent US9597347B2", "about": "“Compositions for treating obesity and insulin resistance disorders” (President and Fellows of Harvard College, priority 2003, dated 2017)", "key": {"[1]": {"test_system": "Wild-type N2 C. elegans worms", "experiment": "Nile Red staining of fat accumulation in wild-type N2 C. elegans", "format": "in vivo", "conditions": "100 μM; for fat mobilization (fat content of the worms): L1 worms, vehicle DMSO"}, "HepG2 cells": {"test_system": "HepG2 cells", "experiment": "Oxidation of 14C-palmitate in HepG2 cells", "format": "cell-based", "conditions": "resveratrol 10 μM in 1% DMSO, AICAR 500 μM in H2O, metformin 1 mM in H2O; 4 hours; vehicle = 1", "method": "(§1) Oxidation of 14C-palmitate to acid-soluble products (modified from H4IIEC3 cells [Witters, L. A. and B. E. Kemp, Insulin activation of acetyl-CoA carboxylase accompanied by inhibition of the 5′-AMP-activated protein kinase. J Biol Chem, 1992. 267(5): p. 2864-7] and HepG2 cells were maintained as described above. Cells (10^6 cells/T25) were seeded in a T25 flask one day prior to the experiment. On the day of the experiment cells were washed with assay buffer (114 mM NaCl, 4.7 mM KCL, 1.2 mM KH2PO4, 1.2 mM MgSO4, 11 mM glucose) before labeling with 14C-palmitate (0.4 μCi/ml) in presence of vehicle, or resveratrol (10 μM), or AICAR (500 μM) for 4 hours.\n(§2) At the end of incubation, the cap of each T25 flask was replaced with a stopper and a 1′×1.5″ Whatman filter paper soaked with 250 μl 2N NaOH. Each flask was injected with 2 ml of 6N HCL, placed in a horizontal position for 10 minutes and left standing overnight. The next morning, 1 ml H2O and 61 μl NaOH were added to a glass scintillation vial and the filter papers from each T25 flask were transferred to their respective vial. 10 ml Aquasol was added to each vial and allowed to stand for 2 hours, after which the vials were vortexed to dissolve the […] and counted in the scintillation counter. The results were expressed as nmols/h/106 cells and shown as the fold effect. ^14CO2 production ranged from 0.3 to 1.8 nmols/h/106 cells. The experiment was repeated three times."}, "[2]": {"test_system": "phosphorylation of AMPK on threonine 172 and of ACC on serine 79", "experiment": "Western analysis of AMPK and ACC phosphorylation in CHO-HIR cells", "format": "cell-based", "conditions": "resveratrol 12.5, 25 or 50 μM; AICAR 500 μM (positive control); 30 minutes; serum-free overnight", "method": "CHO-HIR mammalian cells were washed in PBS and incubated overnight in serum-free DMEM before treatment with 500 μM AICAR (positive control) or 12.5 μM, 25 μM or 50 μM resveratrol. Cells were harvested after 30 minutes and lysates were immediately boiled in SDS and subjected to Western analysis with site-specific antibodies. Phosphorylation of AMPK at Thr172 indicates activation of the kinase. Active AMPK phosphorylates and inactivates ACC at serine 79.\nCHO cells were also treated with 500 μM AICAR (positive control), DMSO, 100 nM, 500 nM, 2.5 μM, 12.5 μM, 25 μM, or 50 μM resveratrol and subject to Western Blot analysis as described above. Western blots were stripped and re-probed for phosphorylated (active) AMPK, total AMPK, phosphorylated acetyl CoA carboxylase (ACC), which is the downstream target of AMPK, and tubulin, which served as a loading control."}, "C. elegans worms": {"test_system": "C. elegans worms", "experiment": "Nile Red fat staining in C. elegans fed RNAi bacteria", "format": "in vivo", "conditions": "RNA inactivation of TOC1.8 (AMPK homolog) or F41E7.3 (COT homolog)", "method": "The role of Sir2.1 in fat metabolism was shown in C. elegans worms in which Sir2.1 was RNA inactivated. Young adult worms were grown to adulthood in the presence of bacteria that carry RNAi vector alone or vector encoding Sir2.1 RNAi (R11A8.4), as described below. These worms were grown in the presence or absence of resveratrol, and stained with Nile-Red as described below.\nWe have examined the C. elegans database and found two gene products that are highly related to mammalian AMPK, TOC1.8 and Par2.3; five genes encoding homologs of CPT-1 and one gene encoding a homolog of COT. C. elegans worms were incubated with bacteria carrying RNAi vector alone, or interfering RNA against TOC1.8 or F41E7.3, a C. elegans homologue of COT in the presence or absence of AICAR. Fat accumulation was visualized with Nile-Red, as described below. […] Thus, AICAR/AMPK signaling to fatty acid oxidation is conserved in worms and mammalian cells.\nThe effect of TOC1.8 and COT inactivation was then investigated in C. elegans incubated with resveratrol. C. elegans worms were incubated with bacteria carrying RNAi vector alone, or a vector encoding TOC1.8 or COT interfering RNA in the presence or absence of resveratrol. Fat accumulation was visualized with Nile-Red, as described below.\nRNAi plates were seeded with HTT5 E. coli carrying either the L4440 RNAi vector control or the specific RNAi clones T01C8.1, AMPK; R11A8.4, sir-2.1; or F41E7.6 COT in the presence or absence of 100 μM resveratrol. Young adults were transferred to plates containing the appropriate vector, Nile Red stain and drug then maintained at 25° C. Nile Red staining was assessed 24 hours after resveratrol treatment by UV microscopy.\nHT115 E. Coli carrying the RNAi vector, L4440, were used for maintenance feeding. Bacteria containing experimental RNAi clones were cultured in 10 ml Luria Broth media containing 50 μg/ml ampicillin for 18 hours. 350 μl of each culture was spotted to a 60 mm dish containing NGM agar, 6 mM IPTG and 25 μg/ml carbenicillin. After overnight incubation (at room temp), Nile Red was added on top of each dish to a final concentration of 0.05 μg/ml along with the experimental compounds indicated in the figure legends. Nile Red staining was assessed after 24 hrs by UV microscopy. For each batch of RNAi clones tested, L4440 (vector alone) was included. […] All phenotypes were confirmed by at least three additional rounds of testing."}, "H4IIEC3 cells": {"test_system": "H4IIEC3 cells", "experiment": "Oxidation of 14C-palmitate in H4IIEC3 cells", "format": "cell-based", "conditions": "resveratrol 10 μM in 1% DMSO, AICAR 500 μM in H2O, metformin 1 mM in H2O; 4 hours; vehicle = 1", "method": "as §1, §2"}, "[3]": {"test_system": "Wild-type N2 C. elegans worms", "experiment": "Nile Red staining of fat accumulation in wild-type N2 C. elegans", "format": "in vivo", "conditions": "0, 1 or 10 mM, overnight", "method": "Wild-type N2 C. elegans worms were grown on OP50 bacteria and exposed overnight to vehicle (0.1% ethanol) alone or with 10, 50 or 100 μM of resveratrol (in ethanol). Fat accumulation was visualized with Nile Red staining, as described further below and in Ashrafi K, et al. Nature 421:268-27 (2003).\nSynchronized starved L1 worms were grown in the presence of Nile Red. Strains were grown on NGM plates at 25° C. for approximately 48 hours until the young adult stage was reached. 20-30 young adult worms were then washed 2× with M9 buffer and transferred to new NGM/Nile red experimental plates that contained either OP50 or HTT5 E. coli carrying the L4440 RNAi control vector. For experiments comparing the effect of nicotinamide and resveratrol on fat mobilization, OP50 plates were coated with vehicle alone or Nicotinamide (in PBS), or vehicle alone and Resveratrol (in Ethanol or DMSO).\nResveratrol (Indofine #024964) was dissolved in Ethanol or DMSO to a 10 mM stock solution. Resveratrol was added to 60 mm NGM agar dishes containing either OP50 or RNAi expressing bacteria (HT115) to a final concentration of 10 μm, 50 μm, and 100 μM. Nile Red was also added to plates to a final concentration of 0.05 μg/ml. Nicotinamide (Supelco #47865-U) was diluted in PBS including Nile Red and added to […] dishes containing OP50 to a final concentration of 1 mM, 10 mM, or 100 mM.\nNile Red: Nile Red Powder (Sigma #N-3013) was dissolved in acetone at 500 μg/ml, diluted in 1× Phosphate Buffered Saline (PBS) including appropriate drug and applied to surface of Nematode Growth Media (NGM) plates previously seeded with OP50 or RNAi bacteria, at a final concentration of 0.05 μg/ml. Fat content was monitored and recorded by fluorescence microscopy.\nNile Red Staining was visualized by using a Nikon TE2000S microscope equipped with a CY3 filter (emission 535-685 nm). Images were captured using a SPOT RT monochrome digital camera attached to the Nikon Microscope with SPOT RT software v3.5. All Nile red images were acquired using identical settings and exposure times and then changed to red palette."}, "[4]": {"test_system": "TNF-alpha treated adipocytes", "experiment": "Radioactive glucose uptake in TNF-alpha treated, insulin resistant adipocytes", "format": "cell-based", "conditions": "resveratrol 5 μM or 15 μM; roziglitazone 4 μM (positive control); with TNF-alpha", "method": "Adipocytes were treated with TNF-alpha to induce insulin resistance as described in Kabayama et al., Glycobiology 15:21-29 (2005) and Wu et al., Mol. Cell 3:151-8 (1999)."}}}
{"smiles": "CSc1ccc(/C=C/c2cc(O)cc(O)c2)cc1", "note": "[3,5-dihydroxy-4′-thiomethyl-trans-stilbene]", "values": [{"measurement": "fat staining", "setting": "[1]; 24 hours, control 1% v/v DMSO", "result": "Significant reduction of fat staining"}]}
{"smiles": "NC(=O)c1ncn([C@@H]2O[C@H](CO)[C@@H](O)[C@H]2O)c1N", "note": "[AICAR, 5-aminoimidazole-4-carboxamide-1-beta-D-ribofuranoside, reference compound]", "values": [{"measurement": "14C-CO2 production (Fold Effect)", "setting": "HepG2 cells", "result": 5, "unit": "Fold Effect"}, {"measurement": "phosphorylation of AMPK (threonine 172) and ACC (serine 79)", "setting": "[2]", "result": "stimulates phosphorylation of AMPK and ACC"}, {"measurement": "fat mobilization", "setting": "C. elegans worms", "result": "inhibits AICAR-stimulated fat mobilization"}, {"measurement": "14C-CO2 production (Fold Effect)", "setting": "H4IIEC3 cells", "result": 2.3, "unit": "Fold Effect"}]}
{"smiles": "CN(C)C(=N)N=C(N)N", "note": "[Metformin]", "values": [{"measurement": "14C-CO2 production (Fold Effect)", "setting": "HepG2 cells", "result": 3.5, "unit": "Fold Effect"}, {"measurement": "14C-CO2 production (Fold Effect)", "setting": "H4IIEC3 cells", "result": 2, "unit": "Fold Effect"}]}
{"smiles": "O=C(/C=C/c1ccc(O)c(O)c1)c1ccc(O)cc1O", "note": "[butein, 3,4,2′,4′-Tetrahydroxychalcone]", "values": [{"measurement": "fat mobilization (fat content of the worms)", "setting": "[1]; 48 hours", "result": "stimulate fat mobilization"}]}
{"smiles": "C(=C/c1ccccc1)/c1ccccc1", "note": "[cis-stilbene, cis-Stilbene]", "values": [{"measurement": "fat staining", "setting": "[1]; L1 animals, 48 hours, control 2.5% v/v DMSO", "result": "No significant effect on worm fat staining"}]}
{"smiles": "O=c1c(O)c(-c2ccc(O)c(O)c2)oc2cc(O)ccc12", "note": "[fisetin, 3,7,3′,4′-Tetrahydroxyflavone]", "values": [{"measurement": "fat mobilization (fat content of the worms)", "setting": "[1]; 48 hours", "result": "stimulate fat mobilization"}]}
{"smiles": "NC(=O)c1cccnc1", "note": "[nicotinamide, reference compound]", "values": [{"measurement": "fat accumulation", "setting": "[3]", "result": "concentration dependent increase in fat accumulation"}]}
{"smiles": "Oc1cc(O)cc(/C=C/c2ccc(O)c(O)c2)c1", "note": "[piceatannol, 3,5,3′,4′-Tetrahydroxy-trans-stilbene]", "values": [{"measurement": "fat mobilization (fat content of the worms)", "setting": "[1]; 48 hours", "result": "stimulate fat mobilization"}]}
{"smiles": "O=c1c(O)c(-c2ccc(O)c(O)c2)oc2cc(O)cc(O)c12", "note": "[quercetin, 3,5,7,3′,4′-Pentahydroxyflavone]", "values": [{"measurement": "fat mobilization (fat content of the worms)", "setting": "[1]; 48 hours", "result": "stimulate fat mobilization"}]}
{"smiles": "CN(CCOc1ccc(CC2SC(=O)NC2=O)cc1)c1ccccn1", "note": "(centres unmarked) [roziglitazone, reference compound]", "values": [{"measurement": "radioactive glucose uptake / insulin sensitivity", "setting": "[4]", "result": "increases the uptake of radioactive glucose"}]}
